PubChem BioAssay (NCI)
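A five-concentration, 48-hour dose response in 96-well plates underlies each endpoint, interpolated linearly between surrounding concentrations. TGI: total growth inhibition.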

How the values were obtained:
Assay in all cases: inhibition of tumour cell growth, NCI panel, 48 h
[1] = test system: KM20L2 colon
[2] = test system: COLO 205 colon
[3] = test system: UACC-62 melanoma
[4] = test system: NCI-H226 lung
[5] = test system: CCRF-CEM leukemia
[6] = test system: TK-10 renal
[7] = test system: M14 melanoma
[8] = test system: MALME-3M melanoma
[9] = test system: K-562 leukemia
[10] = test system: SN12C renal
[11] = test system: RXF 393 renal
[12] = test system: SF-539 CNS
[13] = test system: IGROV1 ovarian
[14] = test system: SNB-75 CNS
[15] = test system: NCI-H23 lung
[16] = test system: DMS 114 small cell lung
[17] = test system: OVCAR-4 ovarian
[18] = test system: HOP-18 NSCLC
[19] = test system: U251 CNS
[20] = test system: SK-OV-3 ovarian
[21] = test system: OVCAR-5 ovarian
[22] = test system: UO-31 renal
[23] = test system: UACC-257 melanoma
[24] = test system: RPMI-8226 leukemia
[25] = test system: SK-MEL-28 melanoma
[26] = test system: SR leukemia
[27] = test system: 786-0 renal
[28] = test system: A549 NSCLC
[29] = test system: HCT-15 colon
[30] = test system: OVCAR-3 ovarian
[31] = test system: SNB-78 CNS
[32] = test system: HOP-92 NSCLC
[33] = test system: CAKI-1 renal
[34] = test system: OVCAR-8 ovarian
[35] = test system: LOX IMVI melanoma
[36] = test system: SK-MEL-2 melanoma
[37] = test system: ACHN renal
[38] = test system: SF-295 CNS
[39] = test system: SK-MEL-5 melanoma
[40] = test system: SF-268 CNS
[41] = test system: HCT-116 colon
[42] = test system: HOP-62 NSCLC
[43] = test system: DMS 273 small cell lung
[44] = test system: HT29 colon
[45] = test system: KM12 colon
[46] = test system: HL-60(TB) leukemia
[47] = test system: M19-MEL melanoma
[48] = test system: SW-620 colon
[49] = test system: DLD-1 colon
[50] = test system: NCI-H460 lung
[51] = test system: NCI-H522 lung
[52] = test system: HCC-2998 colon
[53] = test system: EKVX NSCLC
[54] = test system: MOLT-4 leukemia
[55] = test system: SNB-19 CNS
[56] = test system: LXFL 529 NSCLC
[57] = test system: A498 renal

Measured: TGI

Cc1cc(=O)[nH]c(NNC(C#N)c2ccc(N(C)C)cc2)n1 (stereo not given)
> 100 µM: [1] | [2] | [3] | [4] | [5] | [6] | [7] | [8] | [9] | [10] | [11] | [12] | [13] | [14] | [15] | [16] | [17] | [18] | [19] | [20] | [21] | [22] | [23] | [24] | [25] | [26] | [27] | [28] | [29] | [30] | [31] | [32] | [33] | [34] | [35] | [36] | [37] | [38] | [39] | [40] | [41] | [42] | [43] | [44] | [45] | [46] | [47] | [48] | [49] | [50] | [51]

CC(=O)Oc1cc(OC(C)=O)c2c(c1)OC(c1ccc(OC(C)=O)c(OC(C)=O)c1)CC2=O (stereo not given)
95.8 µM: [18]
> 100 µM: [2] | [52] | [5] | [6] | [10] | [20] | [22] | [28] | [38] | [39] | [41] | [43] | [48]
29.7 µM: [46]
69.4 µM: [32]
49 µM: [26]

O=c1[nH]c(-c2ccc([N+](=O)[O-])cc2)nc2ccc(Cl)cc12
> 100 µM: [1] | [2] | [3] | [53] | [52] | [6] | [8] | [10] | [11] | [12] | [13] | [14] | [54] | [15] | [19] | [20] | [21] | [22] | [23] | [24] | [25] | [27] | [28] | [29] | [31] | [55] | [34] | [36] | [37] | [38] | [39] | [40] | [41] | [43] | [44] | [45] | [47] | [56] | [48]
84.2 µM: [32]
38.8 µM: [9]

O=C1CCCCCCCCCCOC(=O)CCCCCCCCCCO1
> 100 µM: [2] | [3] | [4] | [53] | [52] | [5] | [6] | [7] | [8] | [9] | [10] | [11] | [12] | [13] | [14] | [15] | [16] | [17] | [18] | [19] | [20] | [21] | [22] | [23] | [57] | [25] | [26] | [27] | [28] | [29] | [30] | [31] | [32] | [33] | [55] | [34] | [35] | [36] | [37] | [38] | [39] | [40] | [41] | [42] | [43] | [44] | [45] | [47] | [56] | [48] | [49] | [50] | [51]
44.8 µM: [46]

CSCC(COC(C)=O)(CSC)c1ccncc1
> 100 µM: [1] | [2] | [3] | [53] | [52] | [5] | [6] | [7] | [8] | [9] | [10] | [11] | [12] | [13] | [14] | [54] | [15] | [16] | [17] | [19] | [20] | [22] | [23] | [57] | [24] | [25] | [26] | [27] | [28] | [29] | [30] | [31] | [33] | [55] | [34] | [35] | [36] | [37] | [38] | [39] | [40] | [41] | [42] | [43] | [44] | [45] | [46] | [47] | [56] | [48] | [50] | [51]
